Earlier results in patent US20220016058A1, “PHARMACEUTICAL COMPOSITION CONTAINING TAMSULOSIN HYDROCHLORIDE WITH EXCELLENT ACID RESISTANCE AND PREPARATION METHOD THEREFOR” (HANMI PHARM. CO., LTD., priority 2018, published 2022).
Structures can show the parent of a compound that is named as a salt.

Solubility in water: dissolving a little in water
SMILES: CCOc1ccccc1OCCN[C@H](C)Cc1ccc(OC)c(S(N)(=O)=O)c1 [tamsulosin hydrochloride, Tamsulosin hydrochloride]
